Laboratory results from patent US20190302114A1, “METHOD FOR DETECTING THE PRESENCE OF MYC[…] IN SAMPLE USING I[…] PHO[…]” (KEI INTERNATIONAL LIMITED, priority 2016, published 2019).

Experiments:
Assay type in all cases: binding
[1] = system: antibodies against mycobacterial material in human serum; experiment: ELISA with diacyl glycolipid antigen of formula (XIII) immobilised via the terminal thio group
[2] = system: antibodies against mycobacterial material in human serum; experiment: ELISA with antigen immobilised on ELISA plates, rabbit anti-human IgG HRP as secondary antibody
[3] = system: antibodies against mycobacterial material in human serum; experiment: ELISA with antigen immobilised on ELISA plates, rabbit anti-human IgM HRP as secondary antibody; conditions: for tuberculosis specific binding of antibodies to the immobilised antigen: overall conclusion from TB patient versus healthy samples; for background ELISA signal (absorbance at 450 nm) in healthy persons: serum of healthy persons, 1:20, 'lower' is relative to immobilised mycolic acid
[4] = serum of smear positive TB patients 1-9 (+)

In the case of `CCCCCCCCCCCCCCCCCC[C@H](C)C[C@H](C)[C@@H](O)[C@H](C)C(=O)O[C@@H]1C(OC(=O)CCCCCCCCCCCCCCCS)[C@@H](O[C@H]2OC(CO)[C@@H](O)C(O)[C@H]2O)OC(CO)[C@H]1O` (stereo partly shown) [formula (XIII)], the “background ELISA signal in healthy persons” value ([1]; healthy persons (n=4)) is reported as “markedly lower”, the “tuberculosis specific binding of antibodies to the immobilised antigen” value (shortened to “tuberculosis specific binding”) ([1]; overall conclusion, most significant in smear negative samples) is reported as “very high tuberculosis specific binding” and the “absorbance signal of samples from smear negative patients versus healthy persons” value ([1]; smear negative patients (n=32), very low standard deviation) is reported as “significantly higher than the signal of the healthy persons”. For the same compound, the “absorbance signal of samples from smear positive patients versus healthy persons” value ([1]; smear positive patients (n=9), rather high standard deviation) was “higher than the signal of the healthy persons”.

In the case of `CCCCCCCC(C)CCCC(C)CCCC(C)CCCC(C)CCCC(C)CCCOP(=O)(O)O[C@@H]1O[C@H](CO)[C@@H](O)[C@H](O)[C@@H]1O` (stereo partly drawn) [β-mannosyl phosphomycoketide], the “tuberculosis specific binding” value ([2]; overall conclusion, in particular smear positive samples) is reported as “very high tuberculosis specific binding”, the “background ELISA signal (absorbance at 450 nm) in healthy persons” value ([2]; serum of healthy persons, 1:20, 'lower' is relative to immobilised mycolic acid) is reported as “markedly lower” and the “absorbance signal of samples from smear positive patients versus healthy persons” value [2, 4] is reported as “significantly higher than the signal obtained in the healthy persons”.

With “2-palmitoyl-3-hydroxyphthioceranoyl-2′-sulfate-α-α′-D-trehalose [Ac2SGL]” the “tuberculosis specific binding” value [3] was “very high tuberculosis specific binding”, the “background ELISA signal (absorbance at 450 nm) in healthy persons” value [3] was “markedly lower” and the “absorbance signal of samples from smear negative patients versus healthy persons” value ([3]; serum of smear negative TB patients 11-18 (−)) was “significantly higher than the signal of the healthy persons”. For the same compound, the “absorbance signal of samples from smear positive patients versus healthy persons” value [3, 4] was “higher than the signal of the healthy persons”.

With `C/C(=C\C[n+]1cnc2c(ncn2[C@@H]2O[C@H](CO)C(O)[C@@H]2O)c1N)CC[C@@]1(C)[C@@H]2CCCC(C)(C)C2=CC[C@@H]1C` (stereo partly shown) [1-tuberculosinyladenosine] the “tuberculosis specific binding” value [3] was “very high tuberculosis specific binding” and the “background ELISA signal (absorbance at 450 nm) in healthy persons” value [3] was “markedly lower”.
